MIC data for 30 compounds are collected here from patent US8481544B2, “Antibacterial compositions” (Biota Europe Limited, priority 2006, dated 2013).

SMILES strings stand for the structures. In brackets after ≈: the same amount, converted by molar mass.

One test relates to Enterococcus faecalis ATCC 29212. In words: MIC against Enterococcus faecalis ATCC 29212. Conditions: ATCC29212; Enterococcus faecalis ATCC 29212; read-out: MICs against Enterococcus faecalis, Activity. In kind it is cell-based. On the procedure: Institute. Methods for Dilution Antimicrobial Susceptibility Tests for Bacteria That Grow Aerobically; Approved Standard—Seventh Edition. Document M7-A7. CLSI, Wayne, Pa., 2006; Clinical Laboratories and Standards Institute. Methods for Antimicrobial Susceptibility Testing of Anaerobic Bacteria; Approved Standard—Sixth Edition. Document M11-A6. CLSI, Wayne, Pa., 2004).
Compounds of this invention were tested for antimicrobial activity by susceptibility testing in liquid or on solid media. MICs for compounds against each strain were determined by the broth microdilution or agar dilution method according to the guidelines of the Clinical Laboratories and Standards Institute, formerly the National Committee for Clinical Laboratory Standards (Clinical Laboratories and Standards Institute. Methods for Dilution Antimicrobial Susceptibility Tests for Bacteria That Grow Aerobically; Approved Standard—Seventh Edition. Document M7-A7. CLSI, Wayne, Pa., 2006; Clinical Laboratories and Standards Institute. Methods for Antimicrobial Susceptibility Testing of Anaerobic Bacteria; Approved Standard—Sixth Edition. Document M11-A6. CLSI, Wayne, Pa., 2004).
On to `CCNC(=O)Nc1nc2cc(-c3cccnc3)cc(-c3nc4ccccc4s3)c2s1` [Example 117, 1-Ethyl-3-(5′-pyridin-3-yl-[2,7′]bibenzothiazolyl-2′-yl)-urea], for which the MIC is less than 0.25 mg/L.
As to `CCNC(=O)Nc1nc2cc(-c3cccnc3)cc(-c3cccc(C#N)n3)c2s1` [Example 113, 1-[7-(6-Cyano-pyridin-2-yl)-5-pyridin-3-yl-benzothiazol-2-yl]-3-ethyl-urea], the MIC was less than 0.25 mg/L.
On to `CCNC(=O)Nc1nc2cc(-c3cc(C)n(C)c(=O)c3)cc(-c3cccnc3)c2s1` [Example 50, 1-[5-(1,6-Dimethyl-2-oxo-1,2-dihydro-pyridin-4-yl)-7-pyridin-3-yl-benzothiazol-2-yl]-3-ethyl-urea], for which the MIC lay within 0.25 to 1 mg/L (≈ 0.596 to 2.38 µM).
On the same count and under the same terms, the result for `CCNC(=O)Nc1nc2cc(-c3cnc(N)nc3)cc(-c3ccccn3)c2s1` [Example 154, 1-[5-(2-Amino-pyrimidin-5-yl)-7-pyridin-2-yl-benzothiazol-2-yl]-3-ethyl-urea] reads less than 0.25 mg/L.
Same read-out and setting: the result for `CCNC(=O)Nc1nc2cc(-c3cccnc3)cc(-c3cccc(N)n3)c2s1` [Example 125, 1-[7-(6-Amino-pyridin-2-yl)-5-pyridin-3-yl-benzothiazol-2-yl]-3-ethyl-urea] reads less than 0.25 mg/L.
Take `CCNC(=O)Nc1nc2cc(-c3cccnc3)cc(-n3cccn3)c2s1` [Example 140, 1-Ethyl-3-(7-pyrazol-1-yl-5-pyridin-3-yl-benzothiazol-2-yl)-urea]: the MIC is 0.25 to 1 mg/L (≈ 0.686 to 2.74 µM).
Regarding `CCNC(=O)Nc1nc2cc(-c3cccnc3)cc(-c3cc(C(N)=O)ccn3)c2s1` [Example 108, 2-[2-(3-Ethyl-ureido)-5-pyridin-3-yl-benzothiazol-7-yl]-isonicotinamide], the MIC fell in the range of 0.25 to 1 mg/L (≈ 0.597 to 2.39 µM).
Same read-out and setting: the value for `CCNC(=O)Nc1nc2cc(-c3cccnc3)cc(-c3cccnn3)c2s1` [Example 160, 1-Ethyl-3-(7-pyridazin-3-yl-5-pyridin-3-yl-benzothiazol-2-yl)-urea] was 2 to 16 mg/L (≈ 5.31 to 42.5 µM).
As to `CCNC(=O)Nc1nc2cc(-c3cccnc3)cc(-c3ncnc4[nH]ccc34)c2s1` [Example 116, 1-Ethyl-3-[5-pyridin-3-yl-7-(7H-pyrrolo[2,3-d]pyrimidin-4-yl)-benzothiazol-2-yl]-urea], the MIC is less than 0.25 mg/L.
Still for that read-out and setting: the value for `CCNC(=O)Nc1nc2cc(-c3cccnc3)cc(-c3cc[nH]n3)c2s1` [Example 82, 1-Ethyl-3-[7-(1H-pyrazol-3-yl)-5-pyridin-3-yl-benzothiazol-2-yl]-urea] was 0.25 to 1 mg/L (≈ 0.686 to 2.74 µM); that for `CCNC(=O)Nc1nc2cc(-c3ccc(CN4CCOCC4)cc3)cc(-c3ccc(CN4CCOCC4)cc3)c2s1` [Example 146, 1-[5,7-Bis-(4-morpholin-4-ylmethyl-phenyl)-benzothiazol-2-yl]-3-ethyl-urea] was 2 to 16 mg/L (≈ 3.5 to 28 µM); that for `CCNC(=O)Nc1nc2cc(-c3cncc(C#N)c3)cc(-c3cccnc3)c2s1` [Example 24, 1-[5-(5-Cyano-pyridin-3-yl)-7-pyridin-3-yl-benzothiazol-2-yl]-3-ethyl-urea] was 0.25 to 1 mg/L (≈ 0.624 to 2.5 µM).
Still for that read-out and setting: the value for `CCNC(=O)Nc1nc2cc(-c3ccc(C#N)nc3)cc(-c3cccnc3)c2s1` [Example 27, 1-[5-(6-Cyano-pyridin-3-yl)-7-pyridin-3-yl-benzothiazol-2-yl]-3-ethyl-urea] was less than 0.25 mg/L; that for `CCNC(=O)Nc1nc2cc(-c3cccnc3)cc(N)c2s1` [Example 149, 1-(7-Amino-5-pyridin-3-yl-benzothiazol-2-yl)-3-ethyl-urea] was 2 to 16 mg/L (≈ 6.38 to 51.1 µM).
As to `CCNC(=O)Nc1nc2cc(-c3cccnc3)cc(C3CC3)c2s1` [Example 79, 1-(7-Cyclopropyl-5-pyridin-3-yl-benzothiazol-2-yl)-3-ethyl-urea], the MIC was in the range of 0.25 to 1 mg/L (≈ 0.739 to 2.95 µM).
As for `CCNC(=O)Nc1nc2cc(-c3ccc(C#N)nc3)cc(-c3ccccn3)c2s1` [Example 33, 1-[5-(6-Cyano-pyridin-3-yl)-7-pyridin-2-yl-benzothiazol-2-yl]-3-ethyl-urea], the MIC was less than 0.25 mg/L.
Take `CCNC(=O)Nc1nc2cc(-c3cncnc3)cc(-c3cncnc3)c2s1` [Example 147, 1-(5,7-Di-pyrimidin-5-yl-benzothiazol-2-yl)-3-ethyl-urea]: the MIC was in the range of 2 to 16 mg/L (≈ 5.3 to 42.4 µM).
For the compound `CCNC(=O)Nc1nc2cc(Br)cc(-c3cccnc3)c2s1` [Example 2, 1-(5-Bromo-7-pyridin-3-yl-benzothiazol-2-yl)-3-ethyl-urea], the MIC was 2 to 16 mg/L (≈ 5.3 to 42.4 µM).
Still for that read-out and setting: the result for `CCNC(=O)Nc1nc2cc(-c3cnc4c(c3)NC(=O)CO4)cc(-c3ccccn3)c2s1` [Example 54, 1-Ethyl-3-[5-(2-oxo-2,3-dihydro-1H-pyrido[2,3-b][1,4]oxazin-7-yl)-7-pyridin-2-yl-benzothiazol-2-yl]-urea] reads 0.25 to 1 mg/L (≈ 0.56 to 2.24 µM).
The same measure, in the same setting: the value for `CCNC(=O)Nc1nc2cc(-c3ccc(CN4CCOCC4)nc3)cc(-c3ccccn3)c2s1` [Example 59, 1-Ethyl-3-[5-(6-morpholin-4-ylmethyl-pyridin-3-yl)-7-pyridin-2-yl-benzothiazol-2-yl]-urea] was less than 0.25 mg/L; that for `CCNC(=O)Nc1nc2cc(-c3cccnc3)cc(-c3cccnc3F)c2s1` [Example 76, 1-Ethyl-3-[7-(2-fluoro-pyridin-3-yl)-5-pyridin-3-yl-benzothiazol-2-yl]-urea] was 0.25 to 1 mg/L (≈ 0.635 to 2.54 µM).
The same measure, in the same setting: the result for `CCNC(=O)Nc1nc2cc(-c3ccn(C)c(=O)c3)cc(-c3ccccn3)c2s1` [Example 51, 1-Ethyl-3-[5-(1-methyl-2-oxo-1,2-dihydro-pyridin-4-yl)-7-pyridin-2-yl-benzothiazol-2-yl]-urea] reads less than 0.25 mg/L.
Turning to `CCNC(=O)Nc1nc2cc(-c3cncnc3)cc(-c3ccccn3)c2s1` [Example 35, 1-Ethyl-3-(7-pyridin-2-yl-5-pyrimidin-5-yl-benzothiazol-2-yl)-urea], the MIC was less than 0.25 mg/L.
Same read-out and setting: the result for `CCNC(=O)Nc1nc2cc(-c3cnccc3C)cc(-c3ccccn3)c2s1` [Example 39, 1-Ethyl-3-[5-(4-methyl-pyridin-3-yl)-7-pyridin-2-yl-benzothiazol-2-yl]-urea] reads 0.25 to 1 mg/L (≈ 0.642 to 2.57 µM); that for `CCNC(=O)Nc1nc2cc(-c3ccn(C)c(=O)c3)cc(-c3cccnc3)c2s1` [Example 47, 1-Ethyl-3-[5-(1-methyl-2-oxo-1,2-dihydro-pyridin-4-yl)-7-pyridin-3-yl-benzothiazol-2-yl]-urea], 0.25 to 1 mg/L (≈ 0.617 to 2.47 µM); that for `CCNC(=O)Nc1nc2cc(-c3cccnc3)cc(C(=O)NN)c2s1` [Example 153, 1-Ethyl-3-(7-hydrazinocarbonyl-5-pyridin-3-yl-benzothiazol-2-yl)-urea], 2 to 16 mg/L (≈ 5.61 to 44.9 µM).
For `CCNC(=O)Nc1nc2cc(-c3ccccn3)cc(-c3cnc(N)nc3)c2s1` [Example 74, 1-[7-(2-Amino-pyrimidin-5-yl)-5-pyridin-2-yl-benzothiazol-2-yl]-3-ethyl-urea], the MIC lay in the range of 2 to 16 mg/L (≈ 5.11 to 40.9 µM).
`CCNC(=O)Nc1nc2cc(-c3ccc(CNC)nc3)cc(-c3ccccn3)c2s1` [Example 67, 1-Ethyl-3-[5-(6-methylaminomethyl-pyridin-3-yl)-7-pyridin-2-yl-benzothiazol-2-yl]-urea]: the MIC lay within 0.25 to 1 mg/L (≈ 0.597 to 2.39 µM).
Same read-out and setting: the value for `CCNC(=O)Nc1nc2cc(-c3cncc(N)n3)cc(-c3cccnc3)c2s1` [Example 45, 1-[5-(6-Amino-pyrazin-2-yl)-7-pyridin-3-yl-benzothiazol-2-yl]-3-ethyl-urea] was 0.25 to 1 mg/L (≈ 0.639 to 2.55 µM).

Still in this test, the particulars now being: Enterococcus faecalis, ATCC29212; ATCC 29212; Table 5; read-out: MIC against Enterococcus faecalis (Activity).
Regarding `CCNC(=O)Nc1nc2cc(-c3cnccn3)nc(-c3cnccn3)c2s1` [Example 181, 1-(4,6-di(pyrazin-2-yl)thiazolo[5,4-c]pyridin-2-yl)-3-ethylurea], the MIC is 0.25 to 1 mg/L (≈ 0.661 to 2.64 µM).
